According to patent publication US5620997A, “Isothiazolones” (Warner-Lambert Company, priority 1995, dated 1997):
“Also recorded” adds a separate entry of the source.

How the values were obtained:
[1] = target: T1, rabbit reticulocyte 15-LO (Oryctolagus cuniculus, UniProt P12530); test: Colorimetric Assay of 15-LO Inhibition; assay type: biochemical; details: colorimetric method
T1 construct: rabbit reticulocyte 15-LO; from tissue; host or cells: rabbit reticulocytes
T1 sequence (P12530 1-663): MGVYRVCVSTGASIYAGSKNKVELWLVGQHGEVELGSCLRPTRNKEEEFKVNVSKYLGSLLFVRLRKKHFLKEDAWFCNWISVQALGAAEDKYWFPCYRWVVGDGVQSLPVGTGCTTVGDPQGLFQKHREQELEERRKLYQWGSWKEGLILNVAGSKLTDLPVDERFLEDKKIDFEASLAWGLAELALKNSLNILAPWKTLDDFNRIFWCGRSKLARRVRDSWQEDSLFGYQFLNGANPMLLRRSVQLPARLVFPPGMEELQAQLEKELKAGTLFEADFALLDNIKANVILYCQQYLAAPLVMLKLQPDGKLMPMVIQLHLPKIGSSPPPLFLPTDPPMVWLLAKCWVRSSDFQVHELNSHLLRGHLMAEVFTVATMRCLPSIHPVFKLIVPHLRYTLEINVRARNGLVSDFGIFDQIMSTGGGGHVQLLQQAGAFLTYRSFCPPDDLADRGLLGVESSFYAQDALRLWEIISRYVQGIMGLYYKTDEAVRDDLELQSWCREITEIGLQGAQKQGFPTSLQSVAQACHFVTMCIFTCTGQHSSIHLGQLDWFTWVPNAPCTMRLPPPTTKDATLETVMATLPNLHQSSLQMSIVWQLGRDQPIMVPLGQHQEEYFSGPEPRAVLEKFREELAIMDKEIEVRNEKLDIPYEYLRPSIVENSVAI
Procedure: The isothiazolones of Formula I are also effective for treating inflammation and atherosclerosis. A characteristic feature of atherosclerosis is the accumulation of cholesteryl ester engorged from foam cells. Foam cells are derived from circulating monocytes which invade artery walls in response to hypercholesterolemia, and mature into tissue macrophages. […] Specifically, representative compounds were evaluated by the methods described by Auerbach, et al., Analytical Biochemistry, 1992;201:375-380. Two in vitro assays were utilized, both utilizing rabbit reticulocyte 15-LO, and linoleic acid as substrate, to enzymatically produce a peroxide oxidation product known as 13(S)-HPODE. N-Benzoyl leucomethylene blue was utilized as a colorimetric reagent for detection and quantification of the peroxide formation. Also, HPLC was utilized to quantify the oxidation following incubation at 4° C. for 10 minutes.
Table 3 gives the concentration of compound required to inhibit 50% of the activity of 15-LO (IC50) when measured by the HPLC method of Auerbach, et al. Table 4 gives the percent inhibition of 15-LO activity when evaluated by the colorimetric method.

[2] = target: T2, HIV-1 Nucleocapsid Protein (NCp7) (Human immunodeficiency virus type 1 group M subtype B, UniProt P12493); test: Fluorescence-based (TSQ) assay of zinc ejection from purified HIV-1 NCp7; assay type: biochemical; details: 10 μM compound, 2.8 μM NCp7, 47 μM TSQ, pH 7.4, 26° C., 90 minutes
T2 construct: The NCp7 protein containing 2 Zn-fingers and 2 Zn ions
Description: The compounds of the present invention cause the extrusion of zinc from the nucleocapsid protein (NCp7) of HIV-1. The NC protein is highly conserved among all retroviruses (South T., Blake P., et al., Biochemistry, 1990;;29:7786) and is essential for viral infectivity (Aldovini A. and Young R., J. Virology, 1990;64:1920 and Gorelick R., Nigida S., et al., J. Virology, 1990;64:3207). The zinc is normally held in NC proteins by 1 or 2 zinc fingers. In the case of HIV-1, 2 zinc fingers are present (Summers M., South T., et al., Biochemistry, 1990;29:329) and are involved specifically with the PSI site on viral RNA which controls the packaging of viral RNA. Interference of this packaging causes the formation of non-infectious virions (Dannull J., Surovoy A., et al., EMBO, 1994;13:1525). It has previously been shown that compounds that cause zinc extrusion have potent anti-HIV activity in multiple cell lines and against all retroviruses (Rice W., Schaeffer C., et al., Nature, 1993;361:473).
A fluorescence-based assay has been developed to monitor the ejection of zinc from purified HIV-1 NCp7. The fluorophore, N-(6-methoxy-8-quinolyl)-p-toluenesulfonamide (TSQ), has an increased fluorescent signal upon bonding zinc ion in solution. The NCp7 protein containing 2 Zn-fingers and 2 Zn ions is incubated with drug causing the extrusion of Zn ions. The released Zn is then sequestered by the TSQ and the increased fluorescence monitored relative to control. The assay was performed as follows: 10 μM compound was added to 2.8 μM NCp7 and 47 μM TSQ in 20 μL of pH 7.4 buffer at 26° C. for 90 minutes. Fluorescence (excitation 355 nm emission 400 nm) was monitored versus time. Controls were the NCp7 under assay conditions without drug, and apo NCp7 (no Zn) with drug. The % Zn extrusion was calculated based on the actual fluorescence measured divided by the fluorescence of all theoretical Zn extruded (5.6 μM)×100.
Table 1 below presents the results of testing several of the invention compounds in zinc extrusion assay described above. The compounds were evaluated for their ability to cause the extrusion of zinc from nucleocapsid protein NCp7 (expressed as % relative to control).

NCp7 = target: T3, NCp7 (Human immunodeficiency virus type 1 (NEW YORK-5 ISOLATE), UniProt P12493); test: Electrospray ionization mass spectral analysis of NCp7 with compound; assay type: binding, HIV-1; details: 40 μM NCp7, ammonium acetate buffer pH 6, 320 μM compound, 3 minutes
T3 construct: same protein as the TSQ zinc-ejection assay
Procedure: Electrospray ionization mass spectral analysis was also performed. Using 40 μM NCp7 in ammonium acetate buffer at pH 6, 320 μM 4-(3-oxo-3h-benzo[d]isothiazol-2-yl)benzenesulfonamide (Example 1) in acetonitrile was added. […] In addition, a peak at 6740 corresponding to the NCp7+308+Zn appeared.

In the case of `NS(=O)(=O)c1ccc(-n2sc3ccccc3c2=O)cc1` [Example 1, 4-(3-Oxo-3h-benzo[d]isothiazol-2-yl)-benzenesulfonamide], the inhibition at 10 µM [1] was 35%, the “% Zn Extrusion Relative to Control” value [2] was 100% and the “Zinc extrusion and covalent adduct formation by electrospray mass spectrometry” value (NCp7) was “a mass peak at 6360 (100%) corresponding to apo NCp7 (loss of 2 Zn) appeared; also recorded: the extrusion of zinc and the formation of a covalent bond between the cysteine of the zinc finger and the isothiazolone”.
